Assay results reported in patent US11491184B2, “Liquids rich in noble gas and methods of their preparation and use” (THE BOARD OF REGENTS OF THE UNIVERSITY OF TEXAS SYSTEM, priority 2013, dated 2022).
In brackets after ≈: the same amount, converted by molar mass.

Legend:
[1] = cited from earlier work; for concentration dissolved in water: standard temperature and pressure
[2] = chronic oral administration; cited from earlier work
[3] = tested on: apolipoprotein-E (Apo E) knockout (KO) mice; assay: Echocardiographic measurements after oral Xe-rich solution, Apo E KO mice on high fat diet; format: in vivo
Description: (§1) All animal studies were approved by the Animal Welfare Committee at The University of Texas Health Science Center at Houston. C57BL/6J wild type (WT) and apolipoprotein-E (Apo E) knockout (KO) mice were purchased from Jackson Laboratory (Bar Harbor, Me., USA), see, e.g., Meir et al., 2004, incorporated herein by reference. The control WT mice used were C57BL/6J, which share the same genetic background with the Apo E KO mice. Six- to eight-month-old male WT and KO mice were fed control or high fat diet (Harlan Laboratories, USA) and administered control or Xe-rich solution (200 μl, once a day) and water drink for 6 weeks, since the Apo E KO mice type fed a high fat diet develop atherosclerotic lesions.
(§2) Baseline measurements by echocardiography were obtained before feeding with the high fat diet. Cardiac morphology and function were assessed by serial M-mode echocardiography using a Vevo 770 Imaging System (VisualSonics Inc., Ontario, Canada) equipped with a 30 MHz microprobe. M-mode ventricular measurements were taken at 6-weeks after the feeding. Electrocardiographic (ECG) data was obtained. Echo data (HR, heart rate; LVID, left ventricular internal dimension; IVS, intra-ventricular septum; LVPW, left ventricular posterior wall; FS, fractional shortening; SV, stroke volume; EF, ejection fraction; CO, cardiac output; LV Vol, LV volume; LV mass corrected) were analyzed with the analysis software (VisualSonics Inc., Ontario, Canada).
(§3) Animals were divided into 5 groups (see experiment setting). Echocardiography was used to assess cardiac dimensions and function at baseline, and at 6-weeks following the Xe exposure (FIGS. 1 and 2; Table 1). Cardiac size of WT and KO hearts were determined with LV mass (corrected) and normalized to body weight (mg/g) following 6-weeks of the Xe exposure (FIG. 3A).

[4] = Stated solubility / dissolved concentration of gases and hp-beta-CD; format: physicochemical; conditions: room temperature and 1 atm
[5] = Measurement of Xe dissolved / encapsulated in water and hp-beta-CD; format: physicochemical; conditions: 3 atm
Procedure: Xenon was enclosed into a soluble caged molecules (e.g., cyclodextrin). To remove possible residue molecules from cage, the caged molecular was baked at 40-80° C. under vacuum for overnight. To enclose xenon into caged molecules, xenon was incubated with caged molecular in a sealed vial under 2-10 atm pressure at […]. for overnight to 3 days.
Pure water was degassed under 20-80 mbar vacuum at room temperature for overnight. Xenon (99.999% Medical grade, Matheson Tri-Gas®, Houston, Tex., USA) was re-dissolved into degassed water by pressure water with 2-10 atm xenon gas at 4° C. for overnight to 3 days.
Xe-rich-water is composed of Xe directly dissolved in water and caging with hydroxypropyl-beta-cyclodextrin (hp-beta-CD) in water. […]
To measure the amount of Xe dissolved in a Xe-rich-water. […] The solution was then warmed up to 80° C. in a vial with a silicone-rubber seal (Thermo Scientific SepraSeal® (Thermo Scientific, Hudson, N.H., USA) sealed top for 2 hours. After cooling down to room temperature, a syringe with a 17 gauge needle was inserted into a vial through the silicone-rubber seal. The released Xe gas present in the top spacer formed pressure, which pushed Xe gas into the syringe. The amount of Xe released into syringe was then measured.

[6] = tested on: apolipoprotein-E (Apo E) knockout (KO) mice; assay: Electrocardiographic (ECG) data after Xe-rich solution; format: in vivo; conditions: KO6w treated with Xe, 6-weeks time point
Description: as §1
as §2, with “M-mode ventricular measurements were taken at 6-weeks after the feeding. Electrocardiographic (ECG) data was obtained.” left out

[7] = tested on: apolipoprotein-E (Apo E) knockout (KO) mice; assay: Heart weight normalized to body weight after Xe-rich solution; format: in vivo; conditions: KO6w Xe vs KO6w vehicle, 6 weeks
Description: as §1, §3

[8] = tested on: Brain-derived Neurotrophic Factor (BDNF); assay: BDNF Sandwich ELISA of heart and brain after Xe-rich solution; format: in vivo, mice; conditions: KO6w Xe vs vehicle, 6 weeks
Description: All animal studies were approved by the Animal Welfare Committee at The University of Texas Health Science Center at Houston. C57BL/6J wild type (WT) and apolipoprotein-E (Apo E) knockout (KO) mice were purchased from Jackson Laboratory (Bar Harbor, Me., USA), see, e.g., Meir et al., 2004, incorporated herein by reference. The control WT mice used were C57BL/6J, which share the same genetic background with the Apo E KO mice. […]
Fresh frozen heart and brain tissues were slightly thawed on crushed ice to allow dissection of the hearts and brains. […] The protein concentration was determined using a Bradford Protein Assay (Bio-Rad, Calif., USA).
Except for the heart and brain extracts, the samples (such as plasma) were thawed and clarified at 12,000 rpm for 10 min at 4° C. prior to ELISA assays for β-amyloid per the manufacturer's instructions. BDNF and β-amyloid peptide (Aβ1-40) content were determined by using BDNF Sandwich ELISA Kit (Millipore Corporation, MA, USA) and a Mouse/Rat Amyloid β (1-40) High Specific ELISA Assay Kit (IBLAmerican, Minneapolis, Minn., USA). […] was measured by using SpectroMax Microplate reader (Bio-Tek Instruments) at 450 nm. All samples were analyzed in duplicate.

[9] = KO6w Xe vs KO6w vehicle, 6 week time point

Q: Which Solubility [1] does the source give for `CC(O)COC[C@H]1O[C@@H]2O[C@H]3[C@H](O)[C@@H](O)[C@@H](O[C@H]4[C@H](O)[C@@H](O)[C@@H](O[C@H]5[C@H](O)[C@@H](O)[C@@H](O[C@H]6[C@H](O)[C@@H](O)[C@@H](O[C@H]7[C@H](O)[C@@H](O)[C@@H](O[C@H]8[C@H](O)[C@@H](O)[C@@H](O[C@H]1[C@H](O)[C@H]2O)O[C@@H]8COCC(C)O)O[C@@H]7COCC(C)O)O[C@@H]6COCC(C)O)O[C@@H]5COCC(C)O)O[C@@H]4COCC(C)O)O[C@@H]3COCC(C)O` (stereo partly drawn) [hp-beta-CD, Hydroxypropyl-beta-cyclodextrin] here?
A: The Solubility was 330 mg/mL (≈ 214 mM).

Q: With cyclodextrin as the compound, how does the acceptably safe dose [2] read?
A: The acceptably safe dose was “about 1,000 mg/kg/day”.

Q: Which “increase in LV mass (corrected)” value ([3]; KO6w Xe vs KO6w vehicle and KO6w control, 6 weeks, Xe-rich solution 200 μl once a day) does the source give for `[Xe]` [Xe, Xenon] here?
A: The value was “blocked”.

Q: And the “wall thickness increase (IVS, LVPW)” value ([3]; KO6w Xe vs KO6w vehicle and KO6w/control, 6 weeks)?
A: The value was “significantly blocked”.

Q: What about the “decrease in LV ejection fraction (EF)” value [3, 9] of the same compound?
A: Its value is “significantly blocked”.

Q: What about the “decrease in LV fractional shortening (FS)” value [3, 9] of the same compound?
A: The value was “significantly blocked”.

Q: What about the “decrease in cardiac output (CO)” value [3, 9] of the same compound?
A: The value was “significantly blocked”.

Q: And the “heart rate (HR) increase, in words” value ([3]; KO6w given Xe, 6 weeks)?
A: The value was “blocked”.

Q: And the “Xe in an oil, such as olive oil” value [4]?
A: The value was “about 12 mg Xe/ml”.

Q: And the “xenon encapsulated in a hp-beta-CD cage” value ([5]; −80° C., 0.5 mg/ml of hp-beta-CD)?
A: Its value is 5 mL.

Q: What about the “xenon gas dissolved into 5 ml water” value ([5]; degassed water, pure xenon gas, 4° C., 4 hours to overnight) of the same compound?
A: Its value is 6.5 mL.

Q: And the “ECG changes in T wave, ST segment and QRS complex (myocardial ischemia)” value [6]?
A: Its value is “did not occur”.

Q: What about the “heart weight normalized to body weight” value [7] of the same compound?
A: Its value is “Decreased”.

Q: What about the “relative BDNF levels in heart” value [8] of the same compound?
A: The value was “further increased”.

Q: What about the “concentration dissolved in water” value [1] of the same compound?
A: The value was “about 600 μg/ml”.

Q: Which “concentration dissolved in water” value [1] does the source give for `[Ar]` [Ar, Argon] here?
A: The value was “about 55 μg/ml”.
